Test results: patent US12144874B2, “Synthesis and composition of photodynamic therapeutic agents for the targeted treatment of cancer” (On Target Laboratories, LLC, priority 2015, dated 2024)
“Also recorded” adds a separate entry of the source. Like-named read-outs stand apart in the source and are kept apart here.

Columns and labels:
subcutaneous KB tumor [1] = assay: In vivo PDT efficacy on growth of subcutaneous KB tumor xenograft in nude mice
Procedure: The growth of the tumor was monitored (images were taken) and tumor volume was measured using caliper.
In the following examples, the in vivo efficacy of the compounds is determined using KB tumor cell xenograft in nude mice. In these studies, KB cells were implanted subcutaneously and growth of the tumors was monitored. […] Moreover, once tumors grow to […], the compounds were injected via tail vein. […] In vivo efficacy of BPheid-a was evaluated by monitoring reduction of tumor volume.
KB cells that overexpressed folate receptor were implanted subcutaneously into female nude mice and allowed to grow to ˜50 mm^3 prior to initiation of treatment with 50 nmol of BPheid-a (1). […] In vivo efficacy of BPheid-a was evaluated by monitoring reduction of tumor volume.

subcutaneous KB tumor [2] = assay: as above; conditions: 25 nmol dose, laser 75 mW/cm^2, 137 J/cm^2, 38 min, 3 h after injection
KB cells [3] = assay: cells; conditions: Homo sapiens
KB tumors = assay: Time dependent whole body fluorescence imaging of KB tumor bearing nude mice (IVIS imager); assay type: in vivo
Text: FIG. 3 depicts an overlay of half body (top raw) and whole body (bottom raw) fluorescence image over white light images after adjusting the threshold. KB tumor bearing mice injected with 10 nmol of BPheid-a (1) and image with IVIS imager (ex=745 nm, em=ICG, exposure time=1 s) at different time intervals.
FIG. 13 depicts an overlay of whole body fluorescence image over white light images after adjusting the threshold. KB tumor bearing mice injected with 10 nmol of 65a and image with IVIS imager (ex=745 nm, em=ICG, exposure time=1 s) at different time intervals.
In the following examples, the in vivo efficacy of the compounds is determined using KB tumor cell xenograft in nude mice. In these studies, KB cells were implanted subcutaneously and growth of the tumors was monitored. For time dependent whole body imaging, once tumors become 250-350 mm^3, the compounds were injected via tail vein and accumulation of the PS in the tumor was monitored (over 48 hours) using fluorescence imaging using IVIS imager. Moreover, once tumors grow to […], the compounds were injected via tail vein. Three hours (3 h) after injecting with the compound, tumor was treated with laser beam (75 mW/cm^2, 137 J/cm^2, exposure diameter=7.5-8 mm) for […]. In vivo efficacy of BPheid-a was evaluated by monitoring reduction of tumor volume.

KB cells [4] = test system: KB cells
[5] = Activation wavelength of non-targeted PDT agents; assay type: physicochemical; conditions: Table 1
[6] = rats; cited from earlier work
[7] = dogs; cited from earlier work
[8] = test system: folate receptor positive cancer; conditions: cited from earlier work
[9] = 50 nmol dose, laser 75 mW/cm^2, 137 J/cm^2, 38 min, 3 h after injection
[10] = 10 nmol injected, KB tumor bearing nude mice
[11] = Table 1, non-targeted PDT agents, free drugs in DMSO, 2 h incubation, laser 6 mW/cm^2, 12 J/cm^2, 32 min, then 24 h

## CC[C@H]1c2cc3[nH]c4c(c3C)C(=O)C(C(=O)OC)c4c3nc(cc4[nH]c(cc(n2)[C@@H]1C)c(C(C)=O)c4C)[C@@H](C)[C@@H]3CCC(=O)NNC(=O)OCCSSC[C@H](NC(=O)[C@H](CC(=O)NCCS(=O)(=O)O)NC(=O)CC[C@H](NC(=O)c1ccc(NCc2cnc3nc(N)[nH]c(=O)c3n2)cc1)C(=O)O)C(=O)O (stereo partly shown) [Compound 65a]
Subcutaneous KB tumor [1]; [9]
  Effect on growth of subcutaneous KB tumor, in words: completely cured with no recurrence during the monitored time (13 weeks)
Subcutaneous KB tumor [1]; 50 and 25 nmol doses, laser 38 min 3 h after injection
  Effect on growth of subcutaneous KB tumor, in words: tumor regression at both doses (50 and 25 nmol)
Subcutaneous KB tumor [2]
  Effect on growth of subcutaneous KB tumor, in words: completely cured with no recurrence during the monitored time (4 weeks)

## CC[C@H]1c2cc3[nH]c(c(CC(=O)OC)c4nc(cc5[nH]c(cc(n2)[C@@H]1C)c(C(C)=O)c5C)[C@@H](C)[C@@H]4CCC(=O)NCCC[C@H](NC(=O)CC[P+](c1ccccc1)(c1ccccc1)c1ccccc1)C(=O)OC(C)(C)C)c(C(=O)N[N+](C)(C)C)c3C [Compound 15]
KB cells [3]
  EC50: 47.6 nM

## CC[C@H]1c2cc3[nH]c4c(c3C)C(=O)C(C(=O)OC)c4c3nc(cc4[nH]c(cc(n2)[C@@H]1C)c(C(C)=O)c4C)[C@@H](C)[C@@H]3CCC(=O)NC(Cc1ccc(N(CCCl)CCCl)cc1)C(=O)NNC(=O)OCCSSC[C@H](NC(=O)[C@H](CC(=O)NCCS(=O)(=O)O)NC(=O)CC[C@H](NC(=O)c1ccc(NCc2cnc3nc(N)[nH]c(=O)c3n2)cc1)C(=O)O)C(=O)O (stereo partly shown) [Compound 112a]
KB tumors; [10]
  Fluorescence in the tumor (level or comparison with other conjugates): more highly fluorescent
  Tumor specificity / uptake in other tissues (whole body images): highly specific for FR-positive tumors
KB tumors; 10 nmol, image 2 h after administering
  Localization in whole body images: localized mainly in the tumor
KB cells [4]; Table 12, folate-targeted releasable BPheid-a, miscellaneous
  EC50: 0.5 nM

## Photofrin [Compound 7]
[5]
  Activation Wavelength: 630 nm

## CC[C@H]1c2cc3[n-]c4c(c3C)C(=O)[C@H](C(=O)OC)c4c3nc(cc4[n-]c(cc(n2)[C@@H]1C)c(C(C)=O)c4C)[C@@H](C)[C@@H]3CCC(=O)O.[Pd+2] [Compound 2, Tookad, reference compound]
KB cells [4]; [11]
  EC50: 10400 nM
[5]
  Activation Wavelength: 760 nm

## CC[C@H]1c2cc3[nH]c4c(c3C)C(=O)[C@H](C(=O)OC)c4c3nc(cc4[nH]c(cc(n2)[C@@H]1C)c(C(C)=O)c4C)[C@@H](C)[C@@H]3CCC(=O)O [Compound 1, Bacteriopheophorbide-a, reference compound]
KB tumors; [10]
  Fluorescence in the tumor (level or comparison with other conjugates): very low
  Tumor specificity / uptake in other tissues (whole body images): nonspecific uptake of BPheid-a in the skin
KB tumors; 10 nmol injected, KB tumor bearing nude mice, fluorescence imaging
  Time to localize / accumulate in the tumor after administration: ~24 h
Subcutaneous KB tumor [1]; [9]
  Effect on growth of subcutaneous KB tumor, in words: some effect
Subcutaneous KB tumor [1]; 50 nmol, laser 75 mW/cm^2, 137 J/cm^2, 38 min, 3 h after injection
  KB tumor doubling time after treatment: < 1 week
Subcutaneous KB tumor [1]; 50 nmol, laser 38 min 3 h after injection
  Tumor volume reached by the end of the two week treatment period: > 600 mm^3
KB cells [4]; [11]
  EC50: 745 nM
KB cells [4]; Table 2, mitochondrial-targeted modified PDT agents, free drugs in DMSO, 2 h incubation, laser 32 min, then 24 h
  EC50: 745 nM
KB cells [4]; Table 3, nucleus-targeted modified PDT agents, free drugs in DMSO, 2 h incubation, laser 32 min, then 24 h
  IC50: 745 nM
KB cells [4]; Table 7, folate-targeted releasable BPheid-a conjugates, different soluble linkers
  EC50: 745 nM
KB cells [4]; Table 9, folate conjugates releasing cationic BPheid-a analogues
  EC50: 745 nM
KB cells [4]; Table 11, folate conjugates releasing anionic BPheid-a analogues
  EC50: 745 nM
[5]
  Activation Wavelength: 750 nm

## tookad soluble [Compound 4, reference compound]
KB cells [4]; [11]
  EC50: 7760 nM
[5]
  Activation Wavelength: 750 nm

## OTL38
[6]
  Toxicity: no toxicity
[7]
  Toxicity: no toxicity
[8]; clinical trial, image-guided surgery
  Malignant lesions removed with the aid of OTL38 versus without it: approximately 5 ×
[8]; image-guided resection
  Tumor cells removed by OTL38-guided resection: approximately 95%

## CC[C@H]1c2cc3[nH]c4c(c3C)C(=O)C(C(=O)OC)c4c3nc(cc4[nH]c(cc(n2)[C@@H]1C)c(C(C)=O)c4C)[C@@H](C)[C@@H]3CCC(=O)NCCCC(C(=O)NCCSSC[C@H](NC(=O)[C@H](CC(=O)NCCS(=O)(=O)O)NC(=O)CC[C@H](NC(=O)c1ccc(NCc2cnc3nc(N)[nH]c(=O)c3n2)cc1)C(=O)O)C(=O)O)[N+](C)(C)C (stereo partly shown) [Compound 100]
Subcutaneous KB tumor [1]; [9]
  Effect on growth of subcutaneous KB tumor, in words: completely cure the tumor and showed tumor regression for 2 weeks; also recorded: completely cured with no recurrence during the monitored time (2 weeks)
KB cells [4]; 2 h
  EC50: 12.8 nM

## Visudyne [Compound 5, reference compound]
KB cells [4]; [11]
  EC50: 838 nM
[5]
  Activation Wavelength: 689 nm
